Measurements reported in patent US12435044B2, “Pyridazinone herbicides and pyridazinone intermediates used to prepare a herbicide” (FMC Corporation, priority 2018, dated 2025).

Experiments:
Format in all cases: in vivo
[1] = system: corn (ZEAMD; Zea mays, cv. ‘Pioneer 1184’); assay: Test of Tables L1 to L3, postemergence, mixtures of Cpd. No. 20 with benoxacor, isoxadifen-ethyl, or cloquintocet-mexyl; conditions: for Plant response rating (0 to 100 scale) ZEAMD: approx. 14 d
Method in brief: (§1)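 Postemergence spray of test chemical mixed with safener, in non-phytotoxic solvent with surfactant, onto potted plants 7–10 cm tall at one- to two-leaf stage. Kept in greenhouse ~14 d, then injury rated visually versus untreated controls on 0 (no effect)–100 (complete control) scale; mean of 4 reps.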

[2] = system: winter wheat (TRZAW; Triticum aetivum, cv. Arezzo); assay: as above; conditions: for Plant response rating (0 to 100 scale) TRZAW: approx. 14 d
Method in brief: as §1

[3] = system: soybean (GLXMA; Glycine max, cv. Pioneer 35T58); assay: as above; conditions: for Plant response rating (0 to 100 scale) GLXMA: approx. 14 d
Method in brief: as §1

[4] = system: rice (ORYSS; Oryza sativa, cv. M202); assay: as above; conditions: for Plant response rating (0 to 100 scale) ORYSS: approx. 14 d
Method in brief: as §1

[5] = system: corn (ZEAMD; Zea mays, cv. ‘Pioneer 1184’); assay: Test K pre-/postemergence, mixtures of Cpd. No. 20 with metribuzin or rimsulfuron
From the text: (§2) This test evaluated the effect of mixtures of Cpd. No. 20 with metribuzin or rimsulfuron on several plant species. Seeds of plant species selected from corn (ZEAMD; Zea mays, cv. ‘Pioneer 1184’), soybean (GLXMA; Glycine max, cv. Pioneer 35T58), giant foxtail (SETFA; Setaria faberi), palmer amaranth (AMAPA; Amaranthus palmeri), common waterhemp (AMATU; Amaranthus rudis), mare's tail (ERICA; Conyza canadensis), and common ragweed (AMBEL; Ambrosia artemisiifolia) were planted in pots containing Tama Silt Loam soil and treated preemergence with a directed soil spray using test chemicals formulated in a non-phytotoxic solvent mixture which included a surfactant.
(§3) At the same time, plants selected from these crop and weed species were planted in pots containing Redi-Earth® planting medium (Scotts Company, 14111 Scottslawn Road, Marysville, Ohio 43041) comprising spaghnum peat moss, vermiculite, wetting agent and starter nutrients and treated postemergence with test chemicals formulated in the same manner. Plants ranged in height from 2 to 10 cm and were in the one- to two-leaf stage for the postemergence treatment. Treated plants and untreated controls were maintained in a greenhouse for approximately 14-21 d, after which time all treated plants were compared to untreated controls and visually evaluated for injury. Plant response ratings, summarized in Tables K1 to K4, are based on a 0 to 100 scale where 0 is no effect and 100 is complete control. A dash (-) response means no test result. Test results are presented as a mean of 4 reps.

[6] = system: common waterhemp (AMATU; Amaranthus rudis); assay: as above
From the text: as §2, §3

[7] = system: giant foxtail (SETFA; Setaria faberi); assay: as above
From the text: as §2, §3

[8] = system: palmer amaranth (AMAPA; Amaranthus palmeri); assay: as above
From the text: as §2, §3

[9] = system: soybean (GLXMA; Glycine max, cv. Pioneer 35T58); assay: as above
From the text: as §2, §3

[10] = system: mare's tail (ERICA; Conyza canadensis); assay: as above
From the text: as §2, §3

[11] = system: common ragweed (AMBEL; Ambrosia artemisiifolia); assay: as above
From the text: as §2, §3

[12] = Cpd. No. 20 alone 125 g a.i./ha
[13] = Cpd. No. 20 alone 250 g a.i./ha
[14] = Cpd. No. 20 alone 375 g a.i./ha

## Cc1ccc2ccc(C)c(-c3c(O)c(Cl)nn(C)c3=O)c2c1 [Cpd. No. 20, 6-chloro-4-(2,7-dimethyl-1-naphthalenyl)-5-hydroxy-2-methyl-3(2H)-pyridazinone]
[1]; 125 g a.i./ha
  ZEAMD plant response rating, 0 to 100 scale: 8
[1]; 250 g a.i./ha
  ZEAMD plant response rating, 0 to 100 scale: 1
[1]; 375 g a.i./ha
  ZEAMD plant response rating, 0 to 100 scale: 34
[1]; [12]
  Plant response rating (0 to 100 scale) ZEAMD: 8
[1]; [13]
  Plant response rating (0 to 100 scale) ZEAMD: 1
[1]; [14]
  Plant response rating (0 to 100 scale) ZEAMD: 34
[2]; 125 g a.i./ha
  TRZAW plant response rating, 0 to 100 scale: 28
[2]; 250 g a.i./ha
  TRZAW plant response rating, 0 to 100 scale: 36
[2]; 375 g a.i./ha
  TRZAW plant response rating, 0 to 100 scale: 39
[2]; [12]
  Plant response rating (0 to 100 scale) TRZAW: 28
[2]; [13]
  Plant response rating (0 to 100 scale) TRZAW: 36
[2]; [14]
  Plant response rating (0 to 100 scale) TRZAW: 39
[3]; 125 g a.i./ha
  GLXMA plant response rating, 0 to 100 scale: 15
[3]; 250 g a.i./ha
  GLXMA plant response rating, 0 to 100 scale: 29
[3]; 375 g a.i./ha
  GLXMA plant response rating, 0 to 100 scale: 39
[3]; [12]
  Plant response rating (0 to 100 scale) GLXMA: 15
[3]; [13]
  Plant response rating (0 to 100 scale) GLXMA: 29
[3]; [14]
  Plant response rating (0 to 100 scale) GLXMA: 39
[4]; 125 g a.i./ha
  ORYSS plant response rating, 0 to 100 scale: 5
[4]; 250 g a.i./ha
  ORYSS plant response rating, 0 to 100 scale: 18
[4]; 375 g a.i./ha
  ORYSS plant response rating, 0 to 100 scale: 23
[4]; [12]
  Plant response rating (0 to 100 scale) ORYSS: 5
[4]; [13]
  Plant response rating (0 to 100 scale) ORYSS: 18
[4]; [14]
  Plant response rating (0 to 100 scale) ORYSS: 23
[5]; postemergence, 8 g a.i./ha
  ZEAMD plant response rating, 0 to 100 scale: 0
[5]; postemergence, 16 g a.i./ha
  ZEAMD plant response rating, 0 to 100 scale: 0
[5]; postemergence, 31 g a.i./ha
  ZEAMD plant response rating, 0 to 100 scale: 0
[5]; postemergence, 62 g a.i./ha
  ZEAMD plant response rating, 0 to 100 scale: 0
[5]; preemergence, 8 g a.i./ha
  ZEAMD plant response rating, 0 to 100 scale: 0
[5]; preemergence, 16 g a.i./ha
  ZEAMD plant response rating, 0 to 100 scale: 0
[5]; preemergence, 31 g a.i./ha
  ZEAMD plant response rating, 0 to 100 scale: 0
[5]; preemergence, 62 g a.i./ha
  ZEAMD plant response rating, 0 to 100 scale: 0
[6]; postemergence, 8 g a.i./ha
  AMATU plant response rating, 0 to 100 scale: 50
[6]; postemergence, 16 g a.i./ha
  AMATU plant response rating, 0 to 100 scale: 57
[6]; postemergence, 31 g a.i./ha
  AMATU plant response rating, 0 to 100 scale: 68
[6]; postemergence, 62 g a.i./ha
  AMATU plant response rating, 0 to 100 scale: 62
[6]; preemergence, 8 g a.i./ha
  AMATU plant response rating, 0 to 100 scale: 0
[6]; preemergence, 16 g a.i./ha
  AMATU plant response rating, 0 to 100 scale: 0
[6]; preemergence, 31 g a.i./ha
  AMATU plant response rating, 0 to 100 scale: 20
[6]; preemergence, 62 g a.i./ha
  AMATU plant response rating, 0 to 100 scale: 30
[7]; postemergence, 8 g a.i./ha
  SETFA plant response rating, 0 to 100 scale: 37
[7]; postemergence, 16 g a.i./ha
  SETFA plant response rating, 0 to 100 scale: 62
[7]; postemergence, 31 g a.i./ha
  SETFA plant response rating, 0 to 100 scale: 77
[7]; postemergence, 62 g a.i./ha
  SETFA plant response rating, 0 to 100 scale: 92
[7]; preemergence, 8 g a.i./ha
  SETFA plant response rating, 0 to 100 scale: 6
[7]; preemergence, 16 g a.i./ha
  SETFA plant response rating, 0 to 100 scale: 50
[7]; preemergence, 31 g a.i./ha
  SETFA plant response rating, 0 to 100 scale: 84
[7]; preemergence, 62 g a.i./ha
  SETFA plant response rating, 0 to 100 scale: 100
[8]; postemergence, 8 g a.i./ha
  AMAPA plant response rating, 0 to 100 scale: 28
[8]; postemergence, 16 g a.i./ha
  AMAPA plant response rating, 0 to 100 scale: 38
[8]; postemergence, 31 g a.i./ha
  AMAPA plant response rating, 0 to 100 scale: 33
[8]; postemergence, 62 g a.i./ha
  AMAPA plant response rating, 0 to 100 scale: 60
[8]; preemergence, 8 g a.i./ha
  AMAPA plant response rating, 0 to 100 scale: 0
[8]; preemergence, 16 g a.i./ha
  AMAPA plant response rating, 0 to 100 scale: 26
[8]; preemergence, 31 g a.i./ha
  AMAPA plant response rating, 0 to 100 scale: 50
[8]; preemergence, 62 g a.i./ha
  AMAPA plant response rating, 0 to 100 scale: 45
[9]; postemergence, 8 g a.i./ha
  GLXMA plant response rating, 0 to 100 scale: 0
[9]; postemergence, 16 g a.i./ha
  GLXMA plant response rating, 0 to 100 scale: 0
[9]; postemergence, 31 g a.i./ha
  GLXMA plant response rating, 0 to 100 scale: 8
[9]; postemergence, 62 g a.i./ha
  GLXMA plant response rating, 0 to 100 scale: 13
[9]; preemergence, 8 g a.i./ha
  GLXMA plant response rating, 0 to 100 scale: 0
[9]; preemergence, 16 g a.i./ha
  GLXMA plant response rating, 0 to 100 scale: 0
[9]; preemergence, 31 g a.i./ha
  GLXMA plant response rating, 0 to 100 scale: 0
[9]; preemergence, 62 g a.i./ha
  GLXMA plant response rating, 0 to 100 scale: 0
[10]; postemergence, 8 g a.i./ha
  ERICA plant response rating, 0 to 100 scale: 77
[10]; postemergence, 16 g a.i./ha
  ERICA plant response rating, 0 to 100 scale: 85
[10]; postemergence, 31 g a.i./ha
  ERICA plant response rating, 0 to 100 scale: 92
[10]; postemergence, 62 g a.i./ha
  ERICA plant response rating, 0 to 100 scale: 93
[10]; preemergence, 8 g a.i./ha
  ERICA plant response rating, 0 to 100 scale: 89
[10]; preemergence, 16 g a.i./ha
  ERICA plant response rating, 0 to 100 scale: 100
[10]; preemergence, 31 g a.i./ha
  ERICA plant response rating, 0 to 100 scale: 100
[10]; preemergence, 62 g a.i./ha
  ERICA plant response rating, 0 to 100 scale: 100
[11]; postemergence, 8 g a.i./ha
  AMBEL plant response rating, 0 to 100 scale: 82
[11]; postemergence, 16 g a.i./ha
  AMBEL plant response rating, 0 to 100 scale: 82
[11]; postemergence, 31 g a.i./ha
  AMBEL plant response rating, 0 to 100 scale: 92
[11]; postemergence, 62 g a.i./ha
  AMBEL plant response rating, 0 to 100 scale: 97
[11]; preemergence, 8 g a.i./ha
  AMBEL plant response rating, 0 to 100 scale: 0
[11]; preemergence, 16 g a.i./ha
  AMBEL plant response rating, 0 to 100 scale: 26
[11]; preemergence, 31 g a.i./ha
  AMBEL plant response rating, 0 to 100 scale: 55
[11]; preemergence, 62 g a.i./ha
  AMBEL plant response rating, 0 to 100 scale: 100
